Assay results taken from patent US10004755B2 (priority 2014, dated 2018).

What was measured:
[1] = mouse, in vivo
[2] = mouse, in vivo; remark: listed apart in the source

For `CCCCNc1ncc2c(-c3ccc(CN4CCN(C)CC4)cc3)cn([C@H]3CC[C@H](O)CC3)c2n1` [UNC2025A], the oral bioavailability [1] was “orally bioavailable” and the “MTD (predicted dose in chow)” value [2] was 120 mg/kg.
